Test system: breast cancer
Assay: Treatment of Patient A (Stage II breast cancer)
Assay type: in vivo, human
Details: tamoxifen alone, 20 mg a day, year 3 of 5-year treatment
Protocol: Patient A has Stage II breast cancer. Patient A is in year 3 of a 5-year treatment with tamoxifen (tamoxifen prescribed at 20 mg a day for 5 years) but no regression in patient's breast cancer is apparent. Additional treatment is desired.
Cholesterol deprivation therapy is prescribed for Patient A. Patient A prefers a vegan diet, so Patient A's diet includes no meat or animal products, no saturated fats, and monounsaturated and polyunsaturated fats in moderation. Vegetable proteins, fruits, vegetables, and grains are primary food sources. A multivitamin with vitamin D and calcium is prescribed. […] CDT is prescribed for 8 months.
Patient A is treated with anti-CD cancer cell antibodies. Initial antibody loading dose of 1.3 g antibody preparation is administered as a two hour IV infusion, followed by weekly doses of about 0.6 g administered as a 30 minute infusion of the antibody preparation. Antibody and CDT treatments continue for 6 months.
As a result of combination treatment with CDT diet, statins, anti-CD cancer cell antibodies, and tamoxifen, Patient A's breast cancer regresses.

`CC/C(=C(\c1ccccc1)c1ccc(OCCN(C)C)cc1)c1ccccc1` [tamoxifen] was tested, and the “regression of breast cancer” value was “no regression”.
